Calls of active or inactive are those of the source. The rule behind the calls is not given here.
Tests used:
[1] = target: Serine/threonine-protein kinase D2 (Homo sapiens) (UniProt Q9BZL6); assay: Inhibition of PRKD2 (unknown origin) at 1 uM by mobility shift microfluidics platform based assay relative to control
[2] = target: T1, Tyrosine-protein kinase ABL1 (Homo sapiens, UniProt P00519); assay: Inhibition of ABL (unknown origin) by phosphocellulose paper disk assay
[3] = target: Serine/threonine-protein kinase Sgk3 (Homo sapiens) (UniProt Q96BR1); assay: Inhibition of SGK3 (unknown origin) at 1 uM by mobility shift microfluidics platform based assay relative to control
[4] = target: T1, Tyrosine-protein kinase ABL1; assay: Inhibition of ABL (unknown origin) at 30 nM by phosphocellulose paper disk assay
[5] = target: Calcium/calmodulin-dependent protein kinase type II subunit gamma (Homo sapiens) (UniProt Q13555); assay: Inhibition of CAMK2G (unknown origin) at 1 uM by mobility shift microfluidics platform based assay relative to control
[6] = target: Proto-oncogene tyrosine-protein kinase receptor Ret (Homo sapiens) (UniProt P07949); assay: Inhibition of RET (unknown origin) at 1 uM by mobility shift microfluidics platform based assay relative to control
[7] = target: SRSF protein kinase 2 (Homo sapiens) (UniProt P78362); assay: Inhibition of SRPK2 (unknown origin) at 1 uM by mobility shift microfluidics platform based assay relative to control
[8] = target: Ephrin type-B receptor 3 (Homo sapiens) (UniProt P54753); assay: Inhibition of EPH-B3 (unknown origin) at 1 uM by mobility shift microfluidics platform based assay relative to control
[9] = target: Protein kinase C zeta type (Homo sapiens) (UniProt Q05513); assay: Inhibition of PKC-zeta (unknown origin) at 1 uM by mobility shift microfluidics platform based assay relative to control
[10] = target: Mitogen-activated protein kinase 11 (Homo sapiens) (UniProt Q15759); assay: Inhibition of P38-beta (unknown origin) at 1 uM by mobility shift microfluidics platform based assay relative to control
[11] = target: Ribosomal protein S6 kinase alpha-5 (Homo sapiens) (UniProt O75582); assay: Inhibition of MSK1 (unknown origin) at 1 uM by mobility shift microfluidics platform based assay relative to control
[12] = target: PAS domain-containing serine/threonine-protein kinase (Homo sapiens) (UniProt Q96RG2); assay: Inhibition of PASK (unknown origin) at 1 uM by mobility shift microfluidics platform based assay relative to control
[13] = target: Inhibitor of nuclear factor kappa-B kinase subunit epsilon (Homo sapiens) (UniProt Q14164); assay: Inhibition of IKK-epsilon (unknown origin) at 1 uM by mobility shift microfluidics platform based assay relative to control
[14] = target: MAP kinase-activated protein kinase 5 (Homo sapiens) (UniProt Q8IW41); assay: Inhibition of PRAK (unknown origin) at 1 uM by mobility shift microfluidics platform based assay relative to control
[15] = target: Tyrosine-protein kinase receptor UFO (Homo sapiens) (UniProt P30530); assay: Inhibition of AXL (unknown origin) at 1 uM by mobility shift microfluidics platform based assay relative to control
[16] = target: Sphingosine kinase 2 (Homo sapiens) (UniProt Q9NRA0); assay: Inhibition of SPHK2 (unknown origin) at 1 uM by mobility shift microfluidics platform based assay relative to control
[17] = target: Serine/threonine-protein kinase 25 (Homo sapiens) (UniProt O00506); assay: Inhibition of STK25 (unknown origin) at 1 uM by mobility shift microfluidics platform based assay relative to control
[18] = target: Casein kinase I isoform gamma-3 (Homo sapiens) (UniProt Q9Y6M4); assay: Inhibition of CK1-gamma3 (unknown origin) at 1 uM by mobility shift microfluidics platform based assay relative to control
[19] = target: Bcr/Abl fusion protein (Homo sapiens, UniProt P00519); assay: Inhibition of BCR-ABL (unknown origin) expressed in mouse BA/F3 cells assessed as reduction in ABL phosphorylation at Y412 residue incubated for 3 hrs by immunoblotting assay; assay type: cell-based

Chain of Mitogen-activated protein kinase 11 (Homo sapiens) (Q15759 whole entry): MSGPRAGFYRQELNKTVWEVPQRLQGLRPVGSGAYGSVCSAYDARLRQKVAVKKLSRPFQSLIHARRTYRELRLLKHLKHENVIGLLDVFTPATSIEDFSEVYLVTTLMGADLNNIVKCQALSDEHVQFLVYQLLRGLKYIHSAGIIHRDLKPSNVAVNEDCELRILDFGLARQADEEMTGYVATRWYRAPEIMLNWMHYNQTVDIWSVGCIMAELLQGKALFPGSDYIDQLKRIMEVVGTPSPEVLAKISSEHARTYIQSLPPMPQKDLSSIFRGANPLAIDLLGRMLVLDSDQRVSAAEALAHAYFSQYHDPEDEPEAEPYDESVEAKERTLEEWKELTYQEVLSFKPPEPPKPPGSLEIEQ
Chain of Serine/threonine-protein kinase D2 (Homo sapiens) (Q9BZL6 whole entry): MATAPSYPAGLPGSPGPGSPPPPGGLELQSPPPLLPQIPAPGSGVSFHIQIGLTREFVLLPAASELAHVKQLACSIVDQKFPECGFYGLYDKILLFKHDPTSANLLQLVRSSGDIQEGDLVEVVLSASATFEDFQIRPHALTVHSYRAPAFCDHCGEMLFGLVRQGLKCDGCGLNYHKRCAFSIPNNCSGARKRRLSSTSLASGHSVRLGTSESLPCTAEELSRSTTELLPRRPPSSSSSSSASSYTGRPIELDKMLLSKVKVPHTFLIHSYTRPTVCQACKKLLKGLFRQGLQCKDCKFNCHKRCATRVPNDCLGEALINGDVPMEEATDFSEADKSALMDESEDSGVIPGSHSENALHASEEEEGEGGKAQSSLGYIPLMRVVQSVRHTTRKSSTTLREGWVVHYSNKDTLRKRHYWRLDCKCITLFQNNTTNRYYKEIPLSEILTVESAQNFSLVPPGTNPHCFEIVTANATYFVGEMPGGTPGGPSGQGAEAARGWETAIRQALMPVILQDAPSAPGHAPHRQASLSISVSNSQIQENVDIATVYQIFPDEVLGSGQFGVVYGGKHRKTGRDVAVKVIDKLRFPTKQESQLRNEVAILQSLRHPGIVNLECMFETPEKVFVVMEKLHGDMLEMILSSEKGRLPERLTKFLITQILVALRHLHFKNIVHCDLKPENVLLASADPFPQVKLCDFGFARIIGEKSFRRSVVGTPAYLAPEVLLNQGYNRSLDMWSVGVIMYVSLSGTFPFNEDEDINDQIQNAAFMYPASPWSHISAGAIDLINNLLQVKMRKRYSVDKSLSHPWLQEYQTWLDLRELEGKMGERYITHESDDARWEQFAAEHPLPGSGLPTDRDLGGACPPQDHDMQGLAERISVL
Chain of SRSF protein kinase 2 (Homo sapiens) (P78362 whole entry, looked up): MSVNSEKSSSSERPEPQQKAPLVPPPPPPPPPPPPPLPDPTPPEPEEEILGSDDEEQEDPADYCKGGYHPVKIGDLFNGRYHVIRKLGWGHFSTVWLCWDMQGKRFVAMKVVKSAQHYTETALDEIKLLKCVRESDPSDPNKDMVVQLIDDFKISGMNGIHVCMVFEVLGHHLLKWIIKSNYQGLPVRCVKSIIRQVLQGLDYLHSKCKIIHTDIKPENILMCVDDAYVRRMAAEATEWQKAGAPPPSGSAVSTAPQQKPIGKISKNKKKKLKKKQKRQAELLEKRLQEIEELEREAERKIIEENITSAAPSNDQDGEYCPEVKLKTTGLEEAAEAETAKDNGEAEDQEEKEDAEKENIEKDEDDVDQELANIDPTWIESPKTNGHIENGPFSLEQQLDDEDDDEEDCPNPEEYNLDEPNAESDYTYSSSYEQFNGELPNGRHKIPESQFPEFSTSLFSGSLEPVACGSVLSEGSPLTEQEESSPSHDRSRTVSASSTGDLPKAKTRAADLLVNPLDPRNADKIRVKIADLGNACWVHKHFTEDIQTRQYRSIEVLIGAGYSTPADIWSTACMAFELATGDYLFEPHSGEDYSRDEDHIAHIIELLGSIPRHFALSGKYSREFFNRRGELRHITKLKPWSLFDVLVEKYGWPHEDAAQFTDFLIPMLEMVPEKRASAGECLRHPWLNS
Chain of Serine/threonine-protein kinase 25 (Homo sapiens) (O00506 whole entry, looked up, canonical isoform): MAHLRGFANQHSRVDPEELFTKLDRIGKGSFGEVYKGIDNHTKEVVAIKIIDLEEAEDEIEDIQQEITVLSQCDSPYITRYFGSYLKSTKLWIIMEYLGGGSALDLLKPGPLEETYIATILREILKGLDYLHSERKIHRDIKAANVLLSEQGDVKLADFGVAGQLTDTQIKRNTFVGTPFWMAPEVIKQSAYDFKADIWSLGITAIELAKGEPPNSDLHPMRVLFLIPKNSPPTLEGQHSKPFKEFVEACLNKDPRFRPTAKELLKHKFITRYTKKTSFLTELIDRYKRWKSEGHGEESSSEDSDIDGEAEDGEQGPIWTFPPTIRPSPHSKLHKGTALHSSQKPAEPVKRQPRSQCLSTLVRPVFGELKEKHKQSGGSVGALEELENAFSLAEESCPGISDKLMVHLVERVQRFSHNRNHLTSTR
Chain of Proto-oncogene tyrosine-protein kinase receptor Ret (Homo sapiens) (P07949 whole entry): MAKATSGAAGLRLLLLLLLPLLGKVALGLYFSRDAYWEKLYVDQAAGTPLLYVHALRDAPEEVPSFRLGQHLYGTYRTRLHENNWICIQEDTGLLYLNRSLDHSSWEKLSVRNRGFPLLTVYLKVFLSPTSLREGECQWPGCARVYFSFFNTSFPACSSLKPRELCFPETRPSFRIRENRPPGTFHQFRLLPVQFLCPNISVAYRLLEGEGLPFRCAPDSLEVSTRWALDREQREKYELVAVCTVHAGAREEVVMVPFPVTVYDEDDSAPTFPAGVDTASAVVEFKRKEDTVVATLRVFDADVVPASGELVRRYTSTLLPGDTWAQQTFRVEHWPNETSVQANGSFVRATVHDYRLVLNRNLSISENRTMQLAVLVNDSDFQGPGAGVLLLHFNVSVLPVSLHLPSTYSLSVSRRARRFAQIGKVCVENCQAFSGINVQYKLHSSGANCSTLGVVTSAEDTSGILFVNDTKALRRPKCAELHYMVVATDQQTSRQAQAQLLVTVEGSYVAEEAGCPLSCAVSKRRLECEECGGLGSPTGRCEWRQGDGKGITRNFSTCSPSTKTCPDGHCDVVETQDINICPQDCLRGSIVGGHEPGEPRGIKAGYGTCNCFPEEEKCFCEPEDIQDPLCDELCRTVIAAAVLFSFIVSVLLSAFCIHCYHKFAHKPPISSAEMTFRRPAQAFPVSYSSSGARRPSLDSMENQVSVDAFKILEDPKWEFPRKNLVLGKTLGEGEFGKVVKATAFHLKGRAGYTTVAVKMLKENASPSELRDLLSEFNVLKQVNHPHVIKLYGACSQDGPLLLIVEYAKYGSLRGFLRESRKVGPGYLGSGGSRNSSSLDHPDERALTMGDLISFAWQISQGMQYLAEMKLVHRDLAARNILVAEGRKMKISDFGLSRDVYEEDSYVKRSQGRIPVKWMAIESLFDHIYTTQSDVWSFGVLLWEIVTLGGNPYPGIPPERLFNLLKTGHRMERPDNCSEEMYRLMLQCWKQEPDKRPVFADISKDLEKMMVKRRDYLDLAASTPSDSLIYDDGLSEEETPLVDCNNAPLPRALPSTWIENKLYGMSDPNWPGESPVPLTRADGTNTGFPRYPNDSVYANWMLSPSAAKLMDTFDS
Chain of PAS domain-containing serine/threonine-protein kinase (Homo sapiens) (Q96RG2 whole entry, the tested form may be a part): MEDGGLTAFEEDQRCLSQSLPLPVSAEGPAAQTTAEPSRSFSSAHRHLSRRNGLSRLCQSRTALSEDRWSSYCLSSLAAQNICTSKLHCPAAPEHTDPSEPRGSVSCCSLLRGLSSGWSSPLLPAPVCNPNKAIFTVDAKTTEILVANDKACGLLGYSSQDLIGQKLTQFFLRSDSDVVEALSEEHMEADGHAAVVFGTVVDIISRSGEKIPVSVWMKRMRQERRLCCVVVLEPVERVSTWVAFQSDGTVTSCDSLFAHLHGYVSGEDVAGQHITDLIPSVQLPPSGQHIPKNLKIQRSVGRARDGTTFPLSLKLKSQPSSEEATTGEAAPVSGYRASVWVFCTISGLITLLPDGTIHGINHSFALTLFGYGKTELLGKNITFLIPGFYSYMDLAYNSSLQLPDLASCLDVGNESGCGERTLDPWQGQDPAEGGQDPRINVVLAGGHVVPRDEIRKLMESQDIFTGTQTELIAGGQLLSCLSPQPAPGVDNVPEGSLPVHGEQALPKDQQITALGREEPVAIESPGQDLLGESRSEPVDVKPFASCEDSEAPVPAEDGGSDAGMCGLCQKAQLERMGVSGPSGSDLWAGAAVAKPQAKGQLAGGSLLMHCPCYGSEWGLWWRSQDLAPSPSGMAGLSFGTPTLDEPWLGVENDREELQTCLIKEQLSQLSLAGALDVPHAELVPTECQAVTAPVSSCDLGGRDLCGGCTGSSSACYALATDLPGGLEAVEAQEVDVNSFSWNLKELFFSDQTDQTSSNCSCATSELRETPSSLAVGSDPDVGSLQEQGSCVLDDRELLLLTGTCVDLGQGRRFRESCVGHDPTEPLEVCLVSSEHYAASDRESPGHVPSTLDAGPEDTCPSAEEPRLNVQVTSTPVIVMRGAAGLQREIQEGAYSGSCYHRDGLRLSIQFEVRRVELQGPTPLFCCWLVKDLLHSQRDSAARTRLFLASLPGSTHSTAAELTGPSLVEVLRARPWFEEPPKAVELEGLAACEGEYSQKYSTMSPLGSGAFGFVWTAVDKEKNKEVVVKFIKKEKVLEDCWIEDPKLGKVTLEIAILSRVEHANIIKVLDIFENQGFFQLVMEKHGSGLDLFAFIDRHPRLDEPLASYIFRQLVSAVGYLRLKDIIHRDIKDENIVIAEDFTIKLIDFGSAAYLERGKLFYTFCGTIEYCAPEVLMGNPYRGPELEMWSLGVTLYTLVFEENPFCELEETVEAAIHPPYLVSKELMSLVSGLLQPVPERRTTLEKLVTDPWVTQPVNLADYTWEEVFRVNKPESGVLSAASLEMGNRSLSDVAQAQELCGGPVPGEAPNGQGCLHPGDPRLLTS

inhibition [1]	IC50 [2]	inhibition [3]	inhibition [4]	inhibition [5]	inhibition [6]	inhibition [7]	inhibition [8]	inhibition [9]	inhibition [10]	inhibition [11]	inhibition [12]	inhibition [13]	inhibition [14]	inhibition [15]	inhibition [16]	inhibition [17]	inhibition [18]	IC50 [19]	SMILES
2%	3 nM	-3%	inactive	2%	98%	-1%	86%	4%	3%	5%	1%	8%	7%	2%	20%	3%			CC(C)n1nc(C#Cc2cccc3cc(-c4cccc(C(F)(F)F)c4)ncc23)c2c(N)ncnc21
1%		-2%		0%	100%	-1%	98%	2%	23%		-4%	17%	-1%	12%	0%	-5%	2%	7.5 nM	CC(C)n1nc(C#Cc2cccc(NC(=O)c3cccc(C(F)(F)F)c3)c2)c2c(N)ncnc21

— ChEMBL document CHEMBL4229333, “Effects of rigidity on the selectivity of protein kinase inhibitors” (Eur J Med Chem, 2018)
